# Source: publication PMC6416309, “Crystal structures of thiamine monophosphate kinase from Acinetobacter baumannii in complex with substrates and products” (Scientific Reports, 2019)
# B1: Thiamine monophosphate kinase (ThiL) from Acinetobacter baumannii (enzyme, UniProt A0A0D5YC82 1-305, looked up)
# chain: MAEFSIIDQYFNRQSHPDVALGIGDDSALITPPPNQQLVICADTLVAGRHFPLETSPHAIGWKSVAVNLSDIAAMGAKPHSILLAISLPQVDHEWLEGFSQGIYDCCNQFGVALIGGDTTQGPHLTITVTAMGWIETGKAVLRSGAKVGDYVCVSGQIGDAAYGLQHLGHSLQQRLDYPTPRCKLGEELKGLASSMIDVSDGLAQDLGHILKASKVGARLILEKLPVDPVLQQIEEQQRWQYALAGGDDYELCFTITPQNYEKLLQKQLDVKITMIGQIVEQTKLTFEHLGSDYPLQIHGYQHFA
# notes: Thiamine monophosphate kinase (ThiL), Acinetobacter baumannii strain AB5075-UW, gene amplified from genomic DNA; The vector pBG1861 provides a non-cleavable N-terminal His6-tag; also called AbThiL; not shown: His6, N-terminal, kept
# Legend:
# [1] = target: T1, AbThiL (ThiL, thiamine monophosphate kinase) (Acinetobacter baumannii, UniProt A0A0D5YC82); assay: X-ray crystallography (overnight soak of AMPPNP co-crystals), […] A; format: binding; settings: ternary complex with AMPPNP; Mg2+; 5 mM AMPPNP/TMP/MgCl2; K/Na-tartrate, HEPES pH 7.5; active site at dimer interface
# T1 construct: non-cleavable N-terminal His6-tag (vector pBG1861), expressed in E. coli Rosetta BL21(DE3)R3; modelled Met1/Ala2 to Phe304/C-terminal Ala305; homodimer, active site at dimer interface
# T1 sequence (A0A0D5YC82 1-305): B1 chain
# [2] = target: T1, AbThiL (ThiL, thiamine monophosphate kinase); assay: X-ray crystallography (co-crystal), […] A monoclinic and […] A orthorhombic; format: binding; settings: 5 mM ADP/TPP/MgCl2, paper assigns 5CM7, 5D9U and 6MFM to the two crystal forms inconsistently
# [3] = target: T1, AbThiL (ThiL, thiamine monophosphate kinase); assay: X-ray crystallography (co-crystal), […] A; format: binding; settings: AMPPNP alone, 5 mM AMPPNP/MgCl2, NaBr; ATP site; also with TMP in 5DD7
# [4] = target: the molecule itself; assay: crystal structure; AbThiL co-crystallised or soaked with AMPPNP, AMPPNP/TMP or ADP/TPP and MgCl2; orthorhombic (P21212) and monoclinic (P21) crystal forms; sitting drops at 287 K
molecule,measurement,setting,value
Cc1ncc(C[n+]2csc(CCOP(=O)(O)O)c2C)c(N)n1 [TMP],"X-ray crystallography (overnight soak of AMPPNP co-crystals), 1.70 A",[1],"AbThiL in complex with AMPPNP alone (orthorhombic), the substrate analogs AMPPNP/TMP (orthorhombic)"
Nc1ncnc2c1ncn2[C@@H]1O[C@H](COP(=O)(O)OP(=O)(O)O)[C@@H](O)[C@H]1O [ADP],"X-ray crystallography (co-crystal), 1.55 A monoclinic and 1.90 A orthorhombic","[2]; ternary complex with TPP, ATP/ADP site",with the products ADP/TDP (orthorhombic and monoclinic)
Nc1ncnc2c1ncn2[C@@H]1O[C@H](COP(=O)(O)OP(=O)(O)NP(=O)(O)O)[C@@H](O)[C@H]1O [AMPPNP],"X-ray crystallography (co-crystal), 1.75 A",[3],AbThiL in complex with AMPPNP alone (orthorhombic)
Cc1ncc(C[n+]2csc(CCOP(=O)(O)OP(=O)(O)O)c2C)c(N)n1 [TPP],"X-ray crystallography (co-crystal), 1.55 A monoclinic and 1.90 A orthorhombic","[2]; ternary complex with ADP, TMP/TPP site",with the products ADP/TDP (orthorhombic and monoclinic)
B1,stoichiometry N,[4],2
